Laboratory results reported in the supplement of paper PMC10307832.

Legend:
Test in all cases: relative viability (nuclei count vs DMSO), 5 days (fraction); higher = more cells survive
BI-2536 + Lapatinib = compound: CC[C@@H]1C(=O)N(C)c2cnc(Nc3ccc(C(=O)NC4CCN(C)CC4)cc3OC)nc2N1C1CCCC1 [BI-2536] + CS(=O)(=O)CCNCc1ccc(-c2ccc3ncnc(Nc4ccc(OCc5cccc(F)c5)c(Cl)c4)c3c2)o1 [Lapatinib] (partner 2 µM)
Summary of the method: (§1)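 Five library-drug doses in √10 steps were combined with a fixed anchor-drug dose, or a single drug was given alone, by pin tool to lung cancer cell lines in 1536-well plates the day after seeding. Nuclei were stained and counted after 5 days. Relative viability is the nuclei count in treated wells over that in vehicle wells, taken as the median of duplicate plates.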

[1] = compound: CC1CC(=O)N(C2=CN=C(N=C2N1C3CCCC3)NC4=C(C=C(C=C4)C(=O)NC5CCN(CC5)C)OC)C [NPK76-II-72-1] + N=C(N)NC(=N)NCCc1ccccc1 [Phenformin] (partner 250 µM)
Summary of the method: as §1

[2] = compound: CC1CC(=O)N(C2=CN=C(N=C2N1C3CCCC3)NC4=C(C=C(C=C4)C(=O)NC5CCN(CC5)C)OC)C [NPK76-II-72-1] + O=C(CCCCCCC(=O)Nc1ccccc1)NO [Vorinostat] (partner 1 µM)
Summary of the method: as §1

BI-2536 + Vorinostat = compound: CC[C@@H]1C(=O)N(C)c2cnc(Nc3ccc(C(=O)NC4CCN(C)CC4)cc3OC)nc2N1C1CCCC1 [BI-2536] + O=C(CCCCCCC(=O)Nc1ccccc1)NO [Vorinostat] (partner 1 µM)
Summary of the method: as §1

Cell Line	relative viability (BI-2536 + Lapatinib; first compound 0.01 µM)	relative viability (BI-2536 + Lapatinib; first compound 0.03162 µM)	relative viability (BI-2536 + Lapatinib; first compound 0.1 µM)	relative viability (BI-2536 + Lapatinib; first compound 0.3162 µM)	relative viability (BI-2536 + Lapatinib; first compound 1 µM)	relative viability ([1]; first compound 0.01 µM)	relative viability ([1]; first compound 0.03162 µM)	relative viability ([1]; first compound 0.1 µM)	relative viability ([1]; first compound 0.3162 µM)	relative viability ([1]; first compound 1 µM)	relative viability ([2]; first compound 0.01 µM)	relative viability ([2]; first compound 0.03162 µM)	relative viability ([2]; first compound 0.1 µM)	relative viability ([2]; first compound 0.3162 µM)	relative viability ([2]; first compound 1 µM)	relative viability (BI-2536 + Vorinostat; first compound 0.01 µM)	relative viability (BI-2536 + Vorinostat; first compound 0.03162 µM)	relative viability (BI-2536 + Vorinostat; first compound 0.1 µM)	relative viability (BI-2536 + Vorinostat; first compound 0.3162 µM)	relative viability (BI-2536 + Vorinostat; first compound 1 µM)
NCI-H1975	0.853	0.622	0.421	0.153	0.175	0.398	0.424	0.395	0.43	0.437	0.676	0.736	0.662	0.694	0.712	0.727	0.593	0.326	0.181	0.158
CAL-12T	0.646	0.799	0.582	0.186	0.177	0.563	0.56	0.562	0.554	0.619	0.532	0.798	0.687	0.812	0.688	0.817	0.695	0.278	0.147	0.129
NCI-H1623	–	–	–	–	–	0.562	0.563	0.622	0.324	0.622	–	–	–	–	–	–	–	–	–	–
HCC-44	1.07	0.988	0.287	0.0973	0.0863	0.201	0.176	0.22	0.212	0.271	1.08	1.22	1.11	1.09	1.1	1.19	1.01	0.847	0.346	0.278
EKVX	0.199	0.205	0.205	0.142	0.117	0.221	0.237	0.225	0.147	0.252	0.634	0.736	0.684	–	0.921	0.875	0.729	0.676	0.407	0.208
NCI-H1651	0.754	0.8	0.118	0.0889	0.0915	0.377	0.314	0.314	0.307	0.318	0.57	0.565	0.634	0.557	0.607	0.492	0.553	0.328	0.123	0.0939
NCI-H1944	0.848	0.832	0.754	0.678	0.161	0.197	0.197	0.198	0.187	0.211	0.49	0.583	0.508	0.485	0.646	0.623	0.623	0.237	0.139	0.154
NCI-H1703	0.956	–	0.323	0.174	0.113	–	–	–	–	–	–	–	–	–	–	–	–	–	–	–
Calu-6	0.957	0.666	0.703	0.122	0.132	–	–	–	–	–	–	–	–	–	–	–	–	–	–	–
EBC-1	0.21	0.194	0.203	0.174	0.155	–	–	–	–	–	–	–	–	–	–	–	–	–	–	–
SW 1573	1.1	1.2	1.12	0.186	0.18	0.33	0.438	0.33	0.319	0.452	0.787	0.916	0.637	0.532	0.831	0.677	0.437	0.101	0.0801	0.113
A-427	0.905	1.08	1	0.969	0.135	0.263	0.309	0.341	0.295	0.397	0.824	0.856	0.877	0.855	0.883	0.871	0.859	0.296	0.19	0.165
NCI-H2347	0.786	0.986	0.769	0.413	0.621	0.413	0.432	0.514	0.521	0.395	0.744	0.588	0.656	0.641	0.603	0.509	0.591	0.456	0.436	0.336
NCI-H1355	0.996	0.976	0.62	0.194	0.183	0.408	0.458	0.455	0.45	0.456	0.597	0.613	0.606	0.56	0.715	0.584	0.66	0.37	0.171	0.152
NCI-H358	0.454	0.312	0.174	0.161	0.182	0.324	0.382	0.32	–	0.372	0.674	0.647	0.754	–	0.818	0.507	0.138	0.0931	0.0884	0.0847
PC-3 [JPC-3]	0.462	0.456	0.441	0.451	0.233	0.475	0.484	0.487	0.453	0.472	0.807	–	0.799	0.848	0.905	0.857	0.677	0.416	0.306	0.291
NCI-H2228	1.38	0.629	0.207	0.165	0.166	0.301	0.345	0.328	0.324	0.296	0.543	0.608	0.587	0.589	0.578	0.823	0.468	0.106	0.134	0.0804
HOP-62	0.965	0.99	0.705	0.142	0.135	0.622	0.648	0.615	0.637	0.683	0.618	0.767	0.598	0.39	0.713	0.528	0.74	0.188	0.104	0.13
HARA	0.703	0.814	0.569	0.0764	0.0911	0.419	0.408	0.486	0.434	0.509	0.493	0.668	0.564	0.485	0.603	0.626	0.511	0.422	0.0897	0.108
